Experimental data: patent publication US9212130B2, “Heterocyclic derivative and pharmaceutical composition comprising the same” (SHIONOGI & CO., LTD., priority 2010, dated 2015)

How the values were obtained:
CYP1A2 = CYP1A2 (Homo sapiens (Human), UniProt P05177); assay: CYP inhibition test, 7-ethoxyresorufin O-deethylation; assay type: in vitro ADME; conditions: pooled human hepatic microsome; 0.5 μmol/L ethoxyresorufin; given as 'five kinds'
Experimental: (§1) Using commercially available pooled human hepatic microsome, and employing, as markers, 7-ethoxyresorufin O-deethylation (CYP1A2), tolbutamide methyl-hydroxylation (CYP2C9), mephenyloin 4′-hydroxylation (CYP2C19), dextromethorphan O-demethylation (CYP2D6), and terfenedine hydroxylation as typical substrate metabolism reactions of human main five ([…] enzyme forms (CYP1A2, 2C9, 2C19, 2D6, 3A4), an inhibitory degree of each metabolite production amount by a test compound was assessed.
(§2) The reaction conditions were as follows: substrate, 0.5 μmol/L ethoxyresorufin (CYP1A2), 100 μmol/L tolbutamide (CYP2C9), 50 μmol/L S-mephenitoin (CYP2C19), 5 μmol/L dextromethorphan (CYP2D6), 1 μmol/L terfenedine (CYP3A4); reaction time, 15 minutes; reaction temperature, 37° C.; enzyme, pooled human hepatic microsome 0.2 mg protein/mL; test drug concentration, 1.0. 5.0, 10, 20 μmol/L (four points).
(§3) Each five kinds of substrates, human hepatic microsome, or a test drug in 50 mmol/L Hepes buffer as a reaction solution was added to a 96-well plate at the composition as described above. NADPH, as a cofactor was added to initiate metabolism reactions as markers and, after the incubation at 37° C. for 15 minutes, a methanol/acetonitrile=1/1 (v/v) solution was added to stop the reaction. After the centrifugation at 3000 rpm for 15 minutes, resorufin (CYP1A2 metabolite) in the supernatant was quantified by a fluorescent multilabel counter and tributamide hydroxide (CYP2CP metabolite), mephenyloin 4′ hydroxide (CYP2C19 metabolite), […], and terfenadine alcohol (CYP3A4 metabolite) were quantified by LC/MS/MS.
(§4) Addition of only DMSO being a solvent dissolving a drug to a reaction system was adopted as a control (100%), remaining activity (%) was calculated at each concentration of a test drug added as the solution and IC50 was calculated by reverse presumption by a logistic model using a concentration and an inhibition rate.

human P2X3 receptor = human P2X3 receptor (Homo sapiens (Human), UniProt P56373); assay: Evaluation of human P2X3 receptor inhibitory activity (ATP-induced Fluo-3 fluorescence, FDSS 3000); assay type: cell-based; conditions: C6BU-1 cell transfected with human P2X3 receptor gene
Chain of human P2X3 receptor (P56373 whole entry): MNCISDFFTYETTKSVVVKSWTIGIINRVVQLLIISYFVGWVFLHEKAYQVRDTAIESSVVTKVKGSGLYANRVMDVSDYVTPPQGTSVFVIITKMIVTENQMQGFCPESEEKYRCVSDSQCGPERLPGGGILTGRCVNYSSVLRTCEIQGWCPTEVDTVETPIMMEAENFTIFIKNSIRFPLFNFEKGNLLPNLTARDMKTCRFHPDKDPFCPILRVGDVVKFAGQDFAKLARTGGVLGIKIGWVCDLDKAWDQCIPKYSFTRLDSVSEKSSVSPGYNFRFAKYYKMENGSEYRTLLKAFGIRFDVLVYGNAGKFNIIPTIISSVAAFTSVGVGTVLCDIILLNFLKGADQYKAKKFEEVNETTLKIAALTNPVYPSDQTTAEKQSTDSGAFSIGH
Method in brief: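 Human P2X3 inhibition read as ATP-evoked Fluo-3 calcium fluorescence; compound preincubated, then 50 nM ATP solution (concentration as dispensed) added and fluorescence followed 3 min. Response taken as peak-to-baseline fluorescence ratio per well; IC50 derived from concentration–response.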

[1] = Metabolism stability test (pooled human hepatic microsomes); assay type: in vitro ADME; conditions: human liver microsomes 0.5 mg protein/mL; 37° C., 30 minutes; 1 mmol/L NADPH; compound concentration 0.5 μmol/L
Experimental: Using commercially available pooled human hepatic microsomes, a test compound was reacted for a constant time, a remaining rate was calculated by comparing a reacted sample and an unreacted sample, thereby, a degree of metabolism in liver was assessed.
A reaction was performed (oxidative reaction) at 37° C. for 0 minute or 30 minutes in the presence of 1 mmol/L NADPH in 0.2 mL of a buffer (50 mmol/L tris-HCl pH 7.4, 150 mmol/L potassium chloride, 10 mmol/L magnesium chloride) containing 0.5 mg protein/mL of human liver microsomes. After the reaction, 50 μL of the reaction solution was added to 100 μL of a methanol/acetonitrile 1/1 (v/v), mixed and centrifuged at 3000 rpm for 15 minutes. The test compound in the supernatant was quantified by LC/MS/MS, and a remaining amount of the test compound after the reaction was calculated, letting a compound amount at 0 minute reaction time to be 100%.

CYP2D6 = CYP2D6 (Homo sapiens (Human), UniProt P10635); assay: CYP inhibition test, dextromethorphan O-demethylation; assay type: in vitro ADME; conditions: pooled human hepatic microsome; 5 μmol/L dextromethorphan; given as 'five kinds'
Chain of CYP2D6 (P10635 whole entry): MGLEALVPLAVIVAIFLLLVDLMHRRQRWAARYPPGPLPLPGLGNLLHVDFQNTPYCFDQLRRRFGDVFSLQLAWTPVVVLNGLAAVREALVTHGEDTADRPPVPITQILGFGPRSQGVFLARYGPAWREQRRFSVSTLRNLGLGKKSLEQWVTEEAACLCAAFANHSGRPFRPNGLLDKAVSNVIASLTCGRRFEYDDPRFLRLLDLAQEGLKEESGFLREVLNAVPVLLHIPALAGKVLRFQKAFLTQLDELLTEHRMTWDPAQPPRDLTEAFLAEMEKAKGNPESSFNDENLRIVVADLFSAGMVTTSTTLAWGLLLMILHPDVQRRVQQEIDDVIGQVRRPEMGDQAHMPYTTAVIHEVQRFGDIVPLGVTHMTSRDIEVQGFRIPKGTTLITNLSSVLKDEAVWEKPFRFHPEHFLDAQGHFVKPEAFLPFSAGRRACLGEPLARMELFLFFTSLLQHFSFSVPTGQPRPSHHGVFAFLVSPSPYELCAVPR
Experimental: as §1, §2, §3, §4

CYP2C9 = CYP2C9 (Homo sapiens (Human), UniProt P11712); assay: CYP inhibition test, tolbutamide methyl-hydroxylation; assay type: in vitro ADME; conditions: pooled human hepatic microsome; 100 μmol/L tolbutamide; given as 'five kinds'
Chain of CYP2C9 (P11712 whole entry): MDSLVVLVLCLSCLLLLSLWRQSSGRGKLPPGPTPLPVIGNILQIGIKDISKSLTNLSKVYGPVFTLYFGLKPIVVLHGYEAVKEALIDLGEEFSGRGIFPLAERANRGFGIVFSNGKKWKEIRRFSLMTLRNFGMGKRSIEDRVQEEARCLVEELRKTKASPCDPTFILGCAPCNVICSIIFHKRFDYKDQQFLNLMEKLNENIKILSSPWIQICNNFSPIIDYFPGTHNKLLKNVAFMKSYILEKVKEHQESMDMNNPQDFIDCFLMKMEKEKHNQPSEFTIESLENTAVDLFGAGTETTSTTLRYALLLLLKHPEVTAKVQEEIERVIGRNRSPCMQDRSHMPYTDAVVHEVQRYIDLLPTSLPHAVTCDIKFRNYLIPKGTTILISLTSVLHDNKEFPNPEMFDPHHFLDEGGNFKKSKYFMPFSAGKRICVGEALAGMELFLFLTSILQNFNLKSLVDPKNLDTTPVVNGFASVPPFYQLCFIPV
Experimental: as §1, §2, §3, §4

CYP3A4 [2] = target: T1, CYP3A4 (Homo sapiens (Human), UniProt P08684); assay: CYP inhibition test, terfenedine hydroxylation; assay type: in vitro ADME; conditions: pooled human hepatic microsome; 1 μmol/L terfenedine; given as 'five kinds'
T1 sequence (P08684 whole entry): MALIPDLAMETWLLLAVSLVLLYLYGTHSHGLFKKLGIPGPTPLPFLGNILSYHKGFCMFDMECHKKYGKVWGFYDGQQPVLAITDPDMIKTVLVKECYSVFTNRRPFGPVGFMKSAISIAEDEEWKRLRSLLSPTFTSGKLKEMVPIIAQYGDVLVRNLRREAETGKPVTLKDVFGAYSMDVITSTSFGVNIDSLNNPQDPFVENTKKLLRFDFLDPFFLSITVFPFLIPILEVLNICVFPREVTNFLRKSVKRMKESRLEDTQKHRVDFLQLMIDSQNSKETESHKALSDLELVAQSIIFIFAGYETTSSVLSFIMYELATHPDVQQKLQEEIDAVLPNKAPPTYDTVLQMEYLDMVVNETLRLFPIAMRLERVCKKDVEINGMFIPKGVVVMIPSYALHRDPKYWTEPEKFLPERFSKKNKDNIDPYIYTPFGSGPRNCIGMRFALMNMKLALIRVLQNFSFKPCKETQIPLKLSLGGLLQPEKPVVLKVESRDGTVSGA
Experimental: as §1, §2, §3, §4

CYP2C19 = CYP2C19 (Homo sapiens (Human), UniProt P33261); assay: CYP inhibition test, mephenyloin 4'-hydroxylation; assay type: in vitro ADME; conditions: pooled human hepatic microsome; 50 μmol/L S-mephenitoin; given as 'five kinds'
Chain of CYP2C19 (P33261 whole entry): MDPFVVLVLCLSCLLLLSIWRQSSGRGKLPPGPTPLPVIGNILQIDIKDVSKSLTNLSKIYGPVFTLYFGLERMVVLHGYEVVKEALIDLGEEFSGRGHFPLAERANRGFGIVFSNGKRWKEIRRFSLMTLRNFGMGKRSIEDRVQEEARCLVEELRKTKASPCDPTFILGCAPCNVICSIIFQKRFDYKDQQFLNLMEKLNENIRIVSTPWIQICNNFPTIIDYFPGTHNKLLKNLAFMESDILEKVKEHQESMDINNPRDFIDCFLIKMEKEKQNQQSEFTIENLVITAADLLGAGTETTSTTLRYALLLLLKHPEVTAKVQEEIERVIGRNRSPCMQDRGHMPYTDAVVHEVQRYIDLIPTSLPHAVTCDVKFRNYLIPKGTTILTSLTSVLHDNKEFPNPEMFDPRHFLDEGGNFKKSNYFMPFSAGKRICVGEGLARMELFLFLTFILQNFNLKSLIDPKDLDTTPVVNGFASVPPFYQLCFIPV
Experimental: as §1, §2, §3, §4

Solubility test = assay type: physicochemical; conditions: artificial intestinal juice (phosphate buffer) with 1% DMSO, 25 °C, other biorelevant, kinetic from dmso stock, artificial intestinal juice in pH 8.8, 25 degrees Celsius for 16 hours
Experimental: The solubility of a compound was determined under a condition in which 1% DMSO was added. 10 mmol/L compound solution was prepared using DMSO, and then 6 μL of the compound solution was added to 594 μL of artificial intestinal juice in […] (to 250 mL of 0.2 mol/L potassium dihydrogen phosphate reagent solution was added 118 mL of 0.2 mol/L NaOH reagent solution and water to provide a final volume of 1000 mL). After standing at 25 degrees Celsius for 16 hours, the mixed solution was filtrated with suction. The filtrate was diluted twice with methanol/water (1/1) and then a concentration in the filtration was measured with HPLC or LC/MS/MS by the absolute calibration method.

CYP3A4 [3] = target: T1, CYP3A4; assay: CYP3A4 fluorescent MBI test; assay type: in vitro ADME; conditions: pre-reaction time 0 or 30 minutes; substrate 7-BFC; CYP3A4 expressed in Escherichia coli
Experimental: The CYP3A4 fluorescent MBI test is a test of investigating enhancement of CYP3A4 inhibition of a compound by a metabolism reaction, and the test is performed using, as CYP3A4 enzyme expressed in Escherichia coli and employing, as an index, a reaction in which 7-benzyloxytrifluoromethylchmarin (BFC) is debenzylated by the CYP3A4 enzyme to produce a metabolite, 7-hydroxytrifluoromethylchmarin (HFC) emitting fluorescent light.
The reaction conditions were as follows: substrate, 5.6 μmol/L 7-BFC; pre-reaction time, 0 or 30 minutes; reaction time, 15 minutes; reaction temperature, 25° C.
An enzyme in a K-Pi buffer (pH 7.4) and a test drug solution as a pre-reaction solution were added to a 96-well plate at the composition of the pre-reaction, a part of it was transferred to another 96-well plate so that it was 1/10 diluted by a substrate in a K-Pi buffer, NADPH as a co-factor was added to initiate a reaction as an index (without preincubation) and, after a predetermined time of a reaction, acetonitrile: 0.5 mol/L Tris (trishydroxyaminomethane)=4:1 was added to stop the reaction. In addition, NADPH was added to a remaining preincubation solution to initiate a preincubation (with preincubation) and, after a predetermined time of a preincubation, a part was transferred to another plate so that it was 1/10 diluted with a substrate and a K-Pi buffer to initiate a reaction as an index, After a predetermined time of a reaction, acetonitrile: 0.5 mol/L Tris (trishydroxyaminomethane)=4:1 was added to stop the reaction. For the plate on which each index reaction had been performed, a fluorescent value of 7-HFC which is a metabolite was measured with a fluorescent plate reader. (Ex=420 nm, Em=535 nm).
Addition of only DMSO which is a solvent dissolving a drug to a reaction system was adopted as a control (100%), remaining activity (%) was calculated at each concentration of a test drug added as the solution, and IC50 was calculated by reverse-presumption by a logistic model using a concentration and an inhibition rate. When a difference between IC50 values is 5 or more, this was defined as (+) and, when the difference is 3 μmol/L or less, this was defined as (−).

Chain of CYP1A2 (P05177 whole entry): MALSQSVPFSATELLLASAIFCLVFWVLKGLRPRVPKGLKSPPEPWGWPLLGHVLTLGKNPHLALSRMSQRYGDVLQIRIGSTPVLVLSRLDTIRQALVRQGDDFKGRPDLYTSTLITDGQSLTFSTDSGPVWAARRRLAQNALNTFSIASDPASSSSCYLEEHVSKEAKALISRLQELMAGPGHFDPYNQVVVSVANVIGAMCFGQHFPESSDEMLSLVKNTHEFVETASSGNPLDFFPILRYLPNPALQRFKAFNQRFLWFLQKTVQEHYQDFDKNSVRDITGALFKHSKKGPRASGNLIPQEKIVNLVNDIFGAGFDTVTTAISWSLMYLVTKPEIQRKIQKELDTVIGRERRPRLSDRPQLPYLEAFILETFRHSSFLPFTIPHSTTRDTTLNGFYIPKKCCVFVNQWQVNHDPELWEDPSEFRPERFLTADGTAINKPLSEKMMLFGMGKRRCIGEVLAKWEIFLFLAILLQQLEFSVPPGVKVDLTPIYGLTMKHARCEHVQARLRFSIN

SMILES	IC50 (CYP1A2) [µM]	IC50 (human P2X3 receptor) [µM]	remaining rate [1] [%]	IC50 (CYP2D6) [µM]	IC50 (CYP2C9) [µM]	IC50 (CYP3A4 [2]) [µM]	IC50 (CYP2C19) [µM]	solubility at 16 h (Solubility test) [µM]	IC50 difference (CYP3A4 [3]) [µM]
CC(C)Oc1ccc(Nc2nc(=O)c(C(=O)NC3CCOCC3)cn2Cc2ccc(Cl)cc2)cc1F [I-241]	> 20	0.031	88	> 20	> 20	> 20	> 20		
O=C(O)c1cncc(Oc2ccc(Nc3ncc(NC(=O)C4CCOCC4)c(=O)n3Cc3ccc(Cl)cc3)cc2)c1 [I-305]	> 20	0.004		> 20	> 20	> 20	> 20	> 50	< 3
Cc1nc2ccc(Nc3cc(=O)n(CCCC(=O)O)c(=O)n3Cc3ccc(Cl)cc3)cc2s1 [I-354]	> 20	0.094		> 20	> 20	> 20	> 20		< 3
